In PMC11872463, “Identification of a group of 9-amino-acridines that selectively downregulate regulatory T cell functions through FoxP3” (iScience, 2025):
Structures can show the parent of a compound that is named as a salt. Where two headings read alike, the source gives them in different places.

Assays:
[1] = target: T1, FoxP3 (Homo sapiens, UniProt Q9BZS1); test: biochemical; design: SPR on Biacore T200, His-FoxP3 immobilized on CM5 chip, affinity
T1 construct: His-FoxP3 full-length (SPR); His-FoxP3-ΔN (182-421aa) (AlphaScreen, EMSA)
T1 sequence (Q9BZS1 182-421): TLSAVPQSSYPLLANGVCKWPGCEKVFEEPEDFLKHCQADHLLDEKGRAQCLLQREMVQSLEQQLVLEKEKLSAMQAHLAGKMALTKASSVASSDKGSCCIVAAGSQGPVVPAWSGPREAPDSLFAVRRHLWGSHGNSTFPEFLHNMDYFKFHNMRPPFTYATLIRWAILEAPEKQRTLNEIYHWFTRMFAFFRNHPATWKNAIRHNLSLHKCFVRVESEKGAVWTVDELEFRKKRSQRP
Experimental: To explore how 9-amino acridines downregulate FoxP3, directly or indirectly, a low-molecular-weight compound screening (low molecular weight [LMW] screen) was performed using surface plasmon resonance (SPR) analysis to determine affinities between FoxP3 and all the compounds listed in Table 1. […] In contrast, we observed low or no affinity for FoxP3 with compounds that had little or no effects on FoxP3 downregulation (such as MP20 and MP25). Furthermore, we confirmed the concentration-dependent binding of QDD and MP4 to immobilized FoxP3 protein (Figure S6B) with dissociation constant (KD) values corresponding to the observed IC50 in the cell-based assay, implying that the function of 9-amino-acridine analogs on FoxP3 regulation might be due to their direct binding ability. SPR, concentration-dependent binding to immobilized FoxP3 (KD not printed in main text); IC50 is from AlphaScreen FoxP3-DNA competition; EMSA on FoxP3 | we confirmed the concentration-dependent binding of QDD and MP4 to immobilized FoxP3 protein (Figure S6B)

[2] = target: T1, FoxP3; test: SPR, concentration-dependent binding to immobilized FoxP3 (KD not given in main text); IC50 is from AlphaScreen FoxP3-DNA competition; EMSA
Description: SPR, concentration-dependent binding to immobilized FoxP3 (KD not printed in main text); IC50 is from AlphaScreen FoxP3-DNA competition; EMSA on FoxP3 | we confirmed the concentration-dependent binding of QDD and MP4 to immobilized FoxP3 protein (Figure S6B)

[3] = test system: T2, FoxP3; test: cells; design: species or system primary human CD3+ T cells; flow cytometry of FoxP3+ % in CD4+ T cells, normalized to mock (FoxP3 down-regulation); settings: FoxP3 down-regulation in CD4+ T cells, 24 h
T2 construct: endogenous, primary CD4+ T cells
Experimental: To search for potential small molecular FoxP3 inhibitors, we screened the Prestwick library of approved drugs (1,522 compounds) for compounds that regulated the expression of FoxP3 using a novel high-throughput flow cytometry protocol. Primary CD3^+ T cells from healthy donors were treated with compounds from the Prestwick library at 10 μM for 16 h, followed by a high-throughput flow cytometry analysis measuring FoxP3% in CD4^+ T cells (for workflow, see Figure S1A). Compounds that reduced FoxP3 levels compared to DMSO were selected for further validation. The first verified hit was quinacrine dihydrochloride dihydrate (QDD), where we observed a concentration-dependent FoxP3 downregulation with an IC50 of less than 5 μM in all donors tested (Figures 1A and 1B; Table 1, group 0; Figure S2A). QDD was also confirmed to downregulate FoxP3 in Tregs by gating out CD127^+ cells in both non-stimulated and stimulated T cells (Figure S1B). […] In the first round, compounds MP2, MP3, MP4, and MP5 were identified to be working efficiently in downregulating FoxP3 levels (Table 1, group 2; Table S1; Figure S2C). […] Therefore, a small library of similar acridine and acridinone compounds (Table 1, group 3 and 4; Table S1; Figures S2D and S2E) was assembled by in-silico prediction and assessed for their effects on FoxP3 regulation. […]

| IC50 ([2]; read-out: IC50) [µM] | SMILES | Kd [1] [µM] | IC50 [3] [µM] | IC50 [2] [µM] |
| --- | --- | --- | --- | --- |
| 0.37 | CCN(CC)CCCC(C)Nc1c2cc(OC)ccc2nc2cc(Cl)c(N)cc12 (centres unmarked) [MP4, 3-chloro-N9-[5-(diethylamino)pentan-2-yl]-7-methoxyacridine-2,9-diamine] | 6.9 | – | – |
| – | COc1cc(NC(C)CCCN)c2ncccc2c1 (centres unmarked) [Primaquine] | – | > 100 | – |
| – | CCN(CC)CCCC(C)Nc1c2ccc(Cl)cc2nc2ccc(OC)cc12 (centres unmarked) [QDD, 6-chloro-N-[5-(diethylamino)pentan-2-yl]-2-methoxyacridin-9-amine dihydrate dihydrochloride] | 4.09 | – | 2 |
